# In patent publication US4792554A, “Pyridine compounds, pharaceutical compositions, their use in allergy therapy” (priority 1985, dated 1988):
# Where a name gives a salt, the structure may show the parent alone. Read-outs that look alike come from different tables or passages of the source.
# What was measured:
# bradykinin = experiment: Antagonistic action towards bradykinin: inhibition of bradykinin-induced bronchospasm in anesthetized guinea pigs (Konzett-Rössler); assay type: in vivo, guinea pig; conditions: Cavia porcellus, iv, read-out: Inhibitory action towards bradykinin (ED50)
# Method: (§1) 1. Antagonistic action towards the allergy mediators (on anesthetized guinea pigs)
# (§2) The test substances were administered intravenously in aqueous solution injected in a volume of 1 ml/kg.
# [1] = test system: rat peritoneal mast cells; experiment: Histamine release from isolated rat mast cells induced by calcium ionophore A 23 187; assay type: cell-based; conditions: for IC50: Mast cell, 0.25 h, 15 min incubation, A 23 187 10^-6 g/ml, read-out: Inhibitory action in the Ca ionophore test IC50
# Method: (b) Histamine release from isolated rat mast celss induced by calcium ionophore A 23 187 […] […] For this purpose, 10^4 cells were suspended in Clicks/RPMI (50:50, vol.; supplied by Serva, Heidelberg) tissue culture medium, incubated with the test substance for 15 minutes, and then treated with calcium ionophore A 23 187 at a concentration of 10^-6 g/ml. The released histamine was determined by high-pressure liquid chromatography (HPLC). The measure used for the inhibitory action was the IC50 which represents the molar concentration (mol/l) at which the induced histamine release was decreased to one half that of cells which had not been pretreated with a product. In this context, IC50 values above 10^-5 mol/l are regarded as therapeutically irrelevant.
# mast cells = experiment: Passive cutaneous anaphylaxis (PCA) in the rat, inhibition of mediator release (protective effect on mast cells); assay type: in vivo; conditions: for inhibition in vivo at 25 mg/kg: oral dose 25 mg/kg; for inhibition in vivo at 50 mg/kg: oral dose 50 mg/kg
# Description: (a) Passive cutaneous anaphylaxis (PCA) in the rat (PCA test) Passive cutaneous anaphylaxis is an IgE-mediated allergy of the immediate type (type I). In this model, antibodies bound to mast cells and basophilic granulocytes react with an intravenously administered antigen with release of excessive amount of the allergy mediators. The histamine which is released during this can be visualized by simultaneous application of Evans blue to the shaven flanks of the rats. Photometric evaluation of the color intensity was used to determine, by means of the percentage inhibition of mediator release compared with untreated control animals, the protective effect on mast cells of the compound according to the invention after oral administration.
# [2] = Acute toxicity, mortality within 7 days after single i.p. administration to NMRI mice; conditions: in vivo, ip, mouse i.p.
# Method: The LD50 values were determined by the standard method of the mortality occurring within 7 days after a single intraperitoneal (i.p.) administration to NMRI mice (NMRI=Naval Medical Research Institute).
# [3] = long-term therapy, state of the art; cited from earlier work
# [4] = state of the art; cited from earlier work
# [5] = cited from earlier work
# histamine = experiment: Antagonistic action towards histamine: inhibition of histamine-induced bronchospasm in anesthetized guinea pigs (Konzett-Rössler); assay type: in vivo, guinea pig; conditions: Cavia porcellus, iv, read-out: Inhibitory action towards histamine (ED50)
# Method: as §1, §2
# [6] = Anticholinergic action in the Konzett-Rössler model; assay type: in vivo, guinea pig
# [7] = test system: platelet activating factor (PAF); experiment: Antagonism of PAF-induced bronchospasm in anesthetized rats; assay type: in vivo, rat; conditions: PAF test
# Method: The compounds of the formula I and their salts additionally show a pronounced inhibitory action on platelet activating factor (PAF) and the leukotrienes, which are likewise released as spasmogenic mediators from the mast cells during the course of the immediate anaphylactic reaction. It was possible to antagonize the bronchospasm induced in anesthetized rats by administration of PAF by, for example, intravenous administration of the compound of Example 3 with a ED50 of 1-3 mg/kg. The said products of the state of the art, such as oxatomide, ketotiphen and terfenadine, have no action in this test. The contractions induced by calcium ionophore A 23 187 in isolated strips of lung and the isolated trachea of guinea pigs were inhibited by, for example, the compound of Example 3 with an IC50 of 0.1-0.3 μg/ml. Since calcium ionophore A 23 187 stimulates 5-lipoxygenase and thus promotes the formation of spasmogenic leukotrienes, a possible interpretation of the result of this experiment is that the compounds according to the invention are potent leukotriene inhibitors.
# [8] = anesthetized guinea pigs, dose reducing induced spasm to one half
Structure (SMILES),ED50 (bradykinin; [8]) [mg/kg],IC50 [1] [nM],inhibition in vivo at 50 mg/kg (mast cells; Mast cell) [%],LD50 at 168 h [2] [mg/kg],ED50 (histamine; [8]) [mg/kg],other results
"Cc1cc(N2CCSCC2)c([N+](=O)[O-])c(C)n1.Cl [4-(2,6-dimethyl-3-nitro-4-pyridyl)thiomorpholine hydrochloride, reference compound]",3.16,< 100000,13,150 to 300,–,"inhibition of histamine release in the Ca ionophore test (in words) [1]: inactive; inhibition in vivo at 12.5 mg/kg (mast cells; Mast cell, oral dose 12.5 mg/kg): 0%; inhibition in vivo at 25 mg/kg (mast cells; Mast cell): 0%; protective effect on mast cells in PCA test (in words) (mast cells; oral administration): inactive"
COc1ccc(CCN2CCC(Nc3nc4ccccc4n3Cc3ccc(F)cc3)CC2)cc1 [ASTEMIZOLE],–,–,–,–,–,"weight gain [3]: undesired weight gain; solubility in water [4]: insolubility in water; sedation ([5]; side effect, state of the art): no sedative side effect"
"Cc1cc(NCCN2CCN(C(c3ccccc3)c3ccccc3)CC2)c([N+](=O)[O-])c(C)[n+]1[O-].Cl.Cl.Cl.O.O [Example 1, 2,6-Dimethyl-3-nitro-4-[(2-{4-diphenylmethyl-1-piperazinyl}ethyl)amino]pyridine 1-oxide trihydrochloride dihydrate]",–,100,91,> 150,–,ED50 (histamine): 0.3 to 1 mg/kg; ED50 (bradykinin): 1 to 3 mg/kg
"Cc1cc(NCCN2CCN(Cc3ccccc3)CC2)c([N+](=O)[O-])c(C)n1 [Example 2, 4-[(2-(4-benzyl-1-piperazinyl)ethyl)amino]-2,6-dimethyl-3-nitropyridinetrihydrochloride]",–,10000,67,–,–,–
"Cc1cc(NCCN2CCN(C(c3ccccc3)c3ccccc3)CC2)c(N)c(C)n1.Cl.Cl.Cl.O.O [Example 4, 3-amino-2,6-dimethyl-4-[(2-{4-diphenylmethyl-1-piperazinyl}ethyl)amino]pyridine trihydrochloride dihydrate]",–,50,73,–,–,anticholinergic action [6]: strong anticholinergic action
"Cc1cc(NCCN2CCN(C(c3ccccc3)c3ccccc3)CC2)c(C(=O)O)c(C)n1.Cl.Cl.Cl.O.O [Example 5, 2,6-dimethyl-4-[(2-{4-diphenylmethyl-1-piperazinyl}-ethyl)amino]pyridine-3-carboxylic acid trihydrochloride dihydrate]",–,100,91,300 to 600,–,ED50 (histamine): 1 to 3 mg/kg; ED50 (bradykinin): 3 mg/kg; anticholinergic action [6]: strong anticholinergic action
"Cc1cc(NCCN2CCC(=C(c3ccccc3)c3ccccc3)CC2)c([N+](=O)[O-])c(C)n1.Cl.Cl.O.O [Example 6, 2,6-dimethyl-3-nitro-4-[(2-{4-diphenylmethylene-1-piperidyl}ethyl)amino]pyridine dihydrochloride dihydrate]",–,–,91,600 to 1200,–,ED50 (histamine): 1 to 3 mg/kg; ED50 (bradykinin): 3 to 6 mg/kg
Cc1cc(NCCCN2CCN(C(c3ccccc3)c3ccccc3)CC2)c([N+](=O)[O-])c(C)n1 [Example 7],3 to 10,10,55,150 to 300,3,–
Cc1cc(NCCN2CCN(CC=Cc3ccccc3)CC2)c([N+](=O)[O-])c(C)n1 [Example 8],3 to 10,100,60,75 to 150,3,–
Cc1cc(NCCN2CCN(C(c3ccccc3)c3ccccc3)CC2)c(C#N)c(C)n1 [Example 9],3 to 10,10,64,300 to 600,0.3 to 1,–
Cc1cc(NCCN2CCN(C(c3ccccc3)c3ccccc3)CC2)c(C#N)c(C)[n+]1[O-] [Example 10],1 to 3,< 10,91,75 to 150,0.1 to 0.3,–
CCCc1cc(NCCN2CCN(C(c3ccccc3)c3ccccc3)CC2)c([N+](=O)[O-])c(CCC)n1 [Example 12],–,–,61,–,–,–
Cc1cc(N(C)CCN2CCN(C(c3ccccc3)c3ccccc3)CC2)c([N+](=O)[O-])c(C)n1 [Example 13],10,< 10,68,150 to 300,1 to 3,–
Cc1cc(NCCN2CCN(C(c3ccccc3)c3ccc(Cl)cc3)CC2)c([N+](=O)[O-])c(C)n1 (stereo not shown) [Example 14],3 to 10,1000,55,150 to 300,1 to 3,–
Cc1cc(NCCN2CCN(C(c3ccc(F)cc3)c3ccc(F)cc3)CC2)c([N+](=O)[O-])c(C)n1 [Example 15],3 to 6,100,59,300 to 600,1 to 3,–
Cc1cc(NCCN2CCN(C(c3ccncc3)c3ccc(Cl)cc3)CC2)c([N+](=O)[O-])c(C)n1 (stereo not shown) [Example 16],1,100,75,300 to 600,1,inhibition in vivo at 25 mg/kg (mast cells; Mast cell): 46%
"Cc1cc(NCCN2CCC(C(O)(c3ccccc3)c3ccccc3)CC2)c([N+](=O)[O-])c(C)n1 [Example 17, 4-[(2-{4-hydroxy(diphenyl)methyl-1-piperidyl}ethyl)amino]-2,6-dimethyl-3-nitropyridine dihydrochloride]",3 to 10,< 10,91,75 to 150,0.3,–
O=[N+]([O-])c1cnccc1NCCN1CCN(C(c2ccccc2)c2ccccc2)CC1 [Example 21],0.03,–,–,150 to 300,0.02,–
CC(C)(C)c1ccc(C(O)CCCN2CCC(C(O)(c3ccccc3)c3ccccc3)CC2)cc1 (stereo not shown) [terfenadine],–,–,–,–,–,weight gain [3]: undesired weight gain; solubility in water [4]: insolubility in water; action on PAF / PAF-induced bronchospasm (in words) [7]: no action; sedation ([5]; in vivo): no sedative side effect
